The source of these data is patent US20220142164A1, “HERBICIDAL COMPOUNDS” (SYNGENTA CROP PROTECTION AG, priority 2019, published 2022).

Common to all, as to assay: Post-emergence efficacy, glasshouse pot test
Common to all, as to format: in vivo
Common to all, as to settings: 312 h, post-emergence spray, Application Rate 500 g/Ha, evaluated after 13 days, 100=total damage to plant, 0=no damage to plant

For one experiment, the system named is Eleusine indica (ELEIN). Here is the method:
(§1) Seeds of a variety of test species were sown in standard soil in pots. After cultivation for 14 days (post-emergence) under controlled conditions in a glasshouse (at 24/16° C., day/night; 14 hours light; 65% humidity), the plants were sprayed with an aqueous spray solution derived from the dissolution of the technical active ingredient formula (I) in a small amount of acetone and a special solvent and emulsifier mixture referred to as IF50 (11.12% Emulsogen EL360 TM+44.44% N-methylpyrrolidone+44.44% Dowanol DPM glycol ether), to create a 50 g/I solution which was then diluted to required concentration using 0.25% or 1% Empicol ESC70 (Sodium lauryl ether sulphate)+1% ammonium sulphate as diluent. The test plants were then grown in a glasshouse under controlled conditions (at 24/16° C., day/night; 14 hours light; 65% humidity) and watered twice daily. After 13 days the test was evaluated (100=total damage to plant; 0=no damage to plant). Ipomoea hederacea (IPOHE), Euphorbia heterophylla (EPHHL), Chenopodium album (CHEAL), Amaranthus palmeri (AMAPA), Lolium perenne (LOLPE), Digitaria sanguinalis (DIGSA), Eleusine indica (ELEIN), Echinochloa crus-galli (ECHCG), Setaria faberi (SETFA)

A further experiment relates to Setaria faberi (SETFA). As to the method: as §1
The test system of experiment [1] is Euphorbia heterophylla (EPHHL). As to the method: as §1
For experiment [2], the system named is Chenopodium album (CHEAL). Here is the method: as §1
Experiment [3] relates to Echinochloa crus-galli (ECHCG). Here is the method:
as §1

The subject of experiment [4] is Digitaria sanguinalis (DIGSA). As to the method: as §1
Another experiment has as its system Lolium perenne (LOLPE). As to the method:
as §1

The subject of experiment [5] is Amaranthus palmeri (AMAPA). Here is the method: as §1
The test system of experiment [6] is Ipomoea hederacea (IPOHE). Here is the method: as §1

As for `O=C(O)CCS(=O)(=O)C[n+]1ccc(-c2ncns2)cc1` [Compound A18, 3-[[4-(1,2,4-thiadiazol-5-yl)pyridin-1-ium-1-yl]methylsulfonyl]propanoic acid 2,2,2-trifluoroacetate], the pest or weed control at 500 g/ha in the experiment with Eleusine indica (ELEIN) was 100%; with Setaria faberi (SETFA) it was 100%; in experiment [1] it was 60%; in experiment [2], 90%; in experiment [3], 90%; in experiment [4], 100%. Besides, the figures for the pest or weed control at 500 g/ha (with Lolium perenne (LOLPE); in experiment [5]; in experiment [6]) were 40%, 100% and 70%, respectively.

Take `O=C(O)CS(=O)(=O)C[n+]1ccc(-c2ncns2)cc1` [Compound A19]: the pest or weed control at 500 g/ha in the experiment on Eleusine indica (ELEIN) turned out to be 30%; in the experiment on Setaria faberi (SETFA), 20%; in [1], 30%; in experiment [2], 50%; in [3], 30%; in experiment [4], 30%. Further, the values for the pest or weed control at 500 g/ha (in the experiment with Lolium perenne (LOLPE); in experiment [5]; in experiment [6]) were 20%, 40% and 10%, respectively.

As a reminder, the pest or weed control is how far the test organism was held down. Lower therefore signals a weak effect.
